# Measured values from patent publication US20030099674A1 (priority 2001, published 2003).
# Read-outs that look alike come from different tables or passages of the source.
# Assays:
# [1] = in the dry emulsions of MCT or sesame oil at a storage temperature of 25° C. or below
# Procedure: At each time point including the time 0, a vial was removed from each stability temperature chamber and reconstituted with 0.2 ml deionized water to reform the emulsion.
# Along with the dry emulsion samples, the liquid emulsion samples (pre-lyophilization) were also included in this study. The liquid emulsions were stored at −20° C.
# [2] = Stability of paclitaxel in solutions containing oil and soy lecithin (HPLC purity); type: physicochemical
# Procedure: The ethanol solution was mixed with the selected oil. […] The resulting oil solutions were sealed in glass vials and stored at 40° C. or at 60° C.
# [3] = Paclitaxel emulsion stability study #2: effect of pH, dry vs liquid emulsions at 40° C.; type: physicochemical; settings: pH 4.0 to 8.9, stored at 40° C., HPLC
# Procedure: These tests were conducted to select optimal pH's for a dry paclitaxel emulsion.
# The fine emulsion was divided into 5 portions. The pH of each portion was adjusted to pH 4.0, 5.6, 6.6, 7.8 or 8.9 using 0.2 N HCl or 0.2 N NaOH solution. Average droplet size of each pH adjusted emulsion was determined using LLS.
# The stability evaluation included both dry and liquid emulsions (pre-lyophilization) at each pH. These emulsions were stored sealed in glass vials at 40° C.
# [4] = no lecithin, 24 hours at 25° C.
# Procedure: The mixtures were agitated for 24 hours at 25° C., and were then filtered through a 0.2 micron filter.
structure (smiles),measurement,setting,value
CC(=O)O[C@H]1C(=O)[C@@]2(C)[C@H]([C@H](OC(=O)c3ccccc3)[C@]3(O)C[C@H](OC(=O)[C@H](O)[C@@H](NC(=O)c4ccccc4)c4ccccc4)C(C)=C1C3(C)C)[C@]1(OC(C)=O)CO[C@@H]1C[C@@H]2O [paclitaxel],Time paclitaxel is chemically stable,[1],at least 28 days
same,Purity (% paclitaxel peak area over total peak area) Day 0,[2]; Corn oil with soy lecithin,98.7 % paclitaxel peak area over total peak area
same,Purity (% paclitaxel peak area over total peak area) Day 0,[2]; Cottonseed oil with soy lecithin,98.8 % paclitaxel peak area over total peak area
same,Purity (% paclitaxel peak area over total peak area) Day 0,[2]; Ethyl oleate with soy lecithin,97.0 % paclitaxel peak area over total peak area
same,Purity (% paclitaxel peak area over total peak area) Day 0,[2]; Miglyol 812N with soy lecithin,99.3 % paclitaxel peak area over total peak area
same,Purity (% paclitaxel peak area over total peak area) Day 0,[2]; Safflower oil with soy lecithin,98.0 % paclitaxel peak area over total peak area
same,Purity (% paclitaxel peak area over total peak area) Day 0,"[2]; Sesame oil + oleic acid, with soy lecithin",98.5 % paclitaxel peak area over total peak area
same,Purity (% paclitaxel peak area over total peak area) Day 0,"[2]; Sesame oil + vit E, with soy lecithin",99.0 % paclitaxel peak area over total peak area
same,Purity (% paclitaxel peak area over total peak area) Day 0,"[2]; Sesame oil + water, with soy lecithin",99.1 % paclitaxel peak area over total peak area
same,Purity (% paclitaxel peak area over total peak area) Day 0,[2]; Sesame oil with soy lecithin,99.0 % paclitaxel peak area over total peak area
same,Purity (% paclitaxel peak area over total peak area) Day 0,[2]; Sesame oil without soy lecithin,99.2 % paclitaxel peak area over total peak area
same,Purity (% paclitaxel peak area over total peak area) Day 0,[2]; Soybean oil with soy lecithin,99.4 % paclitaxel peak area over total peak area
same,Purity (% paclitaxel peak area over total peak area) Day 0,[2]; Vitamin E with soy lecithin,96.3 % paclitaxel peak area over total peak area
same,Stability of paclitaxel in dry versus liquid emulsions,[3],more stable than in the liquid emulsions
same,Solubility at 25° C.,[4]; MCT oil (Miglyol 812N),40 mg/g of oil
same,Solubility at 25° C.,[4]; Sesame oil,5 mg/g of oil
